Reference: ChEMBL document CHEMBL1124302, “Nucleoside conjugates. 10. Synthesis and antitumor activity of 1-beta-D-arabinofuranosylcytosine 5'-diphosphate-1,2-dipalmitins” (J Med Chem, 1988)

Assays:
Type in all cases: organism-based
Mus musculus [1] = experiment: Toxicity in mice after 17-29 days at a dose of 80 mg/kg/day; 21/9.5; settings: in vivo
Mus musculus [2] = experiment: Toxicity in mice after 17-35 days at a dose of 400 mg/kg/day; 19/9; settings: in vivo
Mus musculus [3] = experiment: Toxicity in mice after 35->45 days at a dose of 133 mg/kg/day; 45/9.5; settings: in vivo, 1080 h
Mus musculus [4] = experiment: Toxicity in mice after 8->45 days at a dose of 300 mg/kg/day; 45/9; settings: in vivo, 1080 h
Mus musculus [5] = experiment: Toxicity in mice after 29->45 days at a dose of 60 mg/kg/day; 45/9; settings: in vivo, 1080 h
Mus musculus [6] = experiment: Toxicity in mice after 7-14 days at a dose of 100 mg/kg/day; 11/9.5; settings: in vivo
Mus musculus [7] = experiment: Toxicity in mice after 9-11 days at a dose of 200 mg/kg/day; 10/9.5; settings: in vivo
Mus musculus [8] = experiment: Toxicity in mice after 11-12 days at a dose of 19 and 38 mg/kg/day; 11/9.5; settings: in vivo
Mus musculus [9] = experiment: Toxicity in mice after 10 days at a dose of 95 and 190 mg/kg/day; 10/9.5; settings: in vivo, 240 h
Mus musculus [10] = experiment: Toxicity in mice after 14-45 days at a dose of 100 mg/kg/day; 37.5/9; settings: in vivo
Mus musculus [11] = experiment: Toxicity in mice after 15-45 days at a dose of 60 mg/kg/day; 30/9; settings: in vivo
Mus musculus [12] = experiment: Toxicity in mice after 32->45 days at a dose of 400 mg/kg/day; 45/9; settings: in vivo, 1080 h
Mus musculus [13] = experiment: Toxicity in mice after 7-8 days at a dose of 100 mg/kg/day; 7/9; settings: in vivo
Mus musculus [14] = experiment: Toxicity in mice after 7-8 days at a dose of 200 mg/kg/day; 8/9; settings: in vivo
Mus musculus [15] = experiment: Toxicity in mice after 15-18 days at a dose of 60 mg/kg/day; 15.5/8.5; settings: in vivo
Mus musculus [16] = experiment: Toxicity in mice after 17-21 days at a dose of 60 mg/kg/day; 21/8.5; settings: in vivo
Mus musculus [17] = experiment: Toxicity in mice after 12-13 days at a dose of 100 mg/kg/day; 12/8; settings: in vivo
Mus musculus [18] = experiment: Toxicity in mice after 9-12 days at a dose of 200 mg/kg/day; 10.5/9.5; settings: in vivo
Mus musculus [19] = experiment: Toxicity in mice after 13-15 days at a dose of 60 mg/kg/day; 14/8.5; settings: in vivo
Mus musculus [20] = experiment: Toxicity in mice after 7 days at a dose of 200 mg/kg/day; 7/9; settings: in vivo, 168 h

CCCCCCCCCCCCCCCC(=O)OC[C@@H](COP(=O)(O)OP(=O)(O)OC[C@H]1O[C@@H](n2ccc(N)nc2=O)[C@@H](O)[C@@H]1O)OC(=O)CCCCCCCCCCCCCCC
median survival time (Mus musculus [1]): 21 days
median survival time (Mus musculus [2]): 19 days

CCCCCCCCCCCCCCCC(=O)OC[C@H](COP(=O)(O)OP(=O)(O)OC[C@H]1O[C@@H](n2ccc(N)nc2=O)[C@@H](O)[C@@H]1O)OC(=O)CCCCCCCCCCCCCCC
median survival time (Mus musculus [3]): > 45 days
median survival time (Mus musculus [4]): > 45 days
median survival time (Mus musculus [5]): > 45 days

CCCCCCCCCCCCCCCC(=O)OC[C@H](COP(=O)(O)O)OC(=O)CCCCCCCCCCCCCCC.Nc1ccn([C@@H]2O[C@H](COP(=O)(O)O)[C@@H](O)[C@@H]2O)c(=O)n1
median survival time (Mus musculus [6]): 11 days
median survival time (Mus musculus [7]): 10 days

CCCCCCCCCCCCCCCC(=O)OC[C@@H](COP(=O)(O)O)OC(=O)CCCCCCCCCCCCCCC.Nc1ccn([C@@H]2O[C@H](COP(=O)(O)O)[C@@H](O)[C@@H]2O)c(=O)n1
median survival time (Mus musculus [8]): 11 days
median survival time (Mus musculus [9]): 10 days

CCCCCCCCCCCCCCCC(=O)OCC(COP(=O)(O)OP(=O)(O)OC[C@H]1O[C@@H](n2ccc(N)nc2=O)[C@@H](O)[C@@H]1O)OC(=O)CCCCCCCCCCCCCCC (mixture of isomers)
median survival time (Mus musculus [10]): 37.5 days
median survival time (Mus musculus [11]): 30 days
median survival time (Mus musculus [12]): > 45 days

Nc1ccn([C@@H]2O[C@H](CO)[C@@H](O)[C@@H]2O)c(=O)n1 [CYTARABINE]
median survival time (Mus musculus [13]): 7 days
median survival time (Mus musculus [14]): 8 days
median survival time (Mus musculus [15]): 15.5 days
median survival time (Mus musculus [16]): 21 days
median survival time (Mus musculus [17]): 12 days
median survival time (Mus musculus [18]): 10.5 days
median survival time (Mus musculus [19]): 14 days
median survival time (Mus musculus [20]): 7 days
